# Measurements published in patent publication US12486251B2 (PHARMABLOCK SCIENCES (NANJING) , INC., priority 2020, dated 2025).
# Target: CBP recombinant proteins (Homo sapiens (Human), UniProt Q92793)
# Test: Competitive HTRF assay for affinity to CBP recombinant protein
# Assay type: binding
# Settings: His-tagged CBP 5 nM, biotin-labeled ligand 50 nM, 1% DMSO
# Description: The affinity of the compounds synthesized in the present patert to the CBP recombinant proteins was determined by competitive HTRF method. His-tagged cyclic adenosine monophosphate response element binding protein (CREB-binding protein, CBP) was expressed in Escherichia coli system and further purified. CBP biotinylated ligands were all self-made. The BL21 star (DE3) competert cells transfected with His-tagged CBP protein genes at N-terminal were cultured at 37° C. for 16 h until the OD value was between 0.6 and 0.8, induced by 0.5 mM of IPTG and cultured overnight. The supernatant of cell lysate was purified by a Ni-ion affinity column and a Superdex75 molecular sieve column sequentially. The purity of resulting CBP proteins was 95%. The fluorescent donor reagent MAb Anti 6HIS—Eu cryptate Gold (Cisbio #61HI2KLA), the receptor reagent Streptavidin-XL665 (#610SAXLA) and the detection buffer (#62SDBRDD) required for HTRF were obtained from CISBIO BIOASSAYS (Codolet, France). Tris(2-carboxyethyl)phosphine hydrochloride (TCEP), sodium chloride, adenosine triphosphate (ATP), Tween-20, dimethylsulfoxide (DMSO), bovine serum albumin (BSA) and HEPES buffer were obtained from SIGMA at the highest level commercially available.
# The general procedure of the competitive HTRF assay for the affinity to CBP recombinant proteins is as follows: 0.05% Tween-20 and 1 mM of TCEP were added immediately before the assay, and the assay was performed in a buffer consisting of 0.1 mg/ml BSA, 50 mM of HEPES and 5 mM of NaCl of pH 7.5. 2.5 μL of compound solution in a determination buffer with 4% DMSO and 5 μL of CBP solution in a determination buffer were added to a white low-volume 384-well microtiter plate, incubated at room temperature for 20 min, and then incubated at room temperature for 40 min by adding 2.5 μL of biotin-labeled ligand solution to the determination buffer. The final concentrations of CBP, biotin-labeled ligand and DMSO were 5 nM, 50 nM and 1%, respectively. Then, 5 μL of MAb Anti 6HIS—Eu cryptate Gold and […] of Streptavidin-XL665 in detection buffers from the manufacturer were added to the mixture, and the mixture was incubated for another 60 min. The final concentration of Streptavidin-XL665 was 12.5 nM, and MAb Anti 6HIS—Eu cryptate Gold was diluted according to the final concentration provided by the supplier. The multimode reader Spark from TECAN (Mannedorf, Switzerland) was used to read the plate to detect the homogeneous time-resolved fluorescence intensity of two groups, in which the excitation wavelength was 320 nm and the emission wavelengths were 665 nm and 620 nm. The IC50 value of the inhibitor was obtained by fitting fluorescence intensity ratios at 665 nm/620 nm with respect to the inhibitor concentration in an S-shaped dose-response curve by using Prism 7 (La Jolla, 15 CA).
# Chain of CBP recombinant proteins (Q92793 whole entry): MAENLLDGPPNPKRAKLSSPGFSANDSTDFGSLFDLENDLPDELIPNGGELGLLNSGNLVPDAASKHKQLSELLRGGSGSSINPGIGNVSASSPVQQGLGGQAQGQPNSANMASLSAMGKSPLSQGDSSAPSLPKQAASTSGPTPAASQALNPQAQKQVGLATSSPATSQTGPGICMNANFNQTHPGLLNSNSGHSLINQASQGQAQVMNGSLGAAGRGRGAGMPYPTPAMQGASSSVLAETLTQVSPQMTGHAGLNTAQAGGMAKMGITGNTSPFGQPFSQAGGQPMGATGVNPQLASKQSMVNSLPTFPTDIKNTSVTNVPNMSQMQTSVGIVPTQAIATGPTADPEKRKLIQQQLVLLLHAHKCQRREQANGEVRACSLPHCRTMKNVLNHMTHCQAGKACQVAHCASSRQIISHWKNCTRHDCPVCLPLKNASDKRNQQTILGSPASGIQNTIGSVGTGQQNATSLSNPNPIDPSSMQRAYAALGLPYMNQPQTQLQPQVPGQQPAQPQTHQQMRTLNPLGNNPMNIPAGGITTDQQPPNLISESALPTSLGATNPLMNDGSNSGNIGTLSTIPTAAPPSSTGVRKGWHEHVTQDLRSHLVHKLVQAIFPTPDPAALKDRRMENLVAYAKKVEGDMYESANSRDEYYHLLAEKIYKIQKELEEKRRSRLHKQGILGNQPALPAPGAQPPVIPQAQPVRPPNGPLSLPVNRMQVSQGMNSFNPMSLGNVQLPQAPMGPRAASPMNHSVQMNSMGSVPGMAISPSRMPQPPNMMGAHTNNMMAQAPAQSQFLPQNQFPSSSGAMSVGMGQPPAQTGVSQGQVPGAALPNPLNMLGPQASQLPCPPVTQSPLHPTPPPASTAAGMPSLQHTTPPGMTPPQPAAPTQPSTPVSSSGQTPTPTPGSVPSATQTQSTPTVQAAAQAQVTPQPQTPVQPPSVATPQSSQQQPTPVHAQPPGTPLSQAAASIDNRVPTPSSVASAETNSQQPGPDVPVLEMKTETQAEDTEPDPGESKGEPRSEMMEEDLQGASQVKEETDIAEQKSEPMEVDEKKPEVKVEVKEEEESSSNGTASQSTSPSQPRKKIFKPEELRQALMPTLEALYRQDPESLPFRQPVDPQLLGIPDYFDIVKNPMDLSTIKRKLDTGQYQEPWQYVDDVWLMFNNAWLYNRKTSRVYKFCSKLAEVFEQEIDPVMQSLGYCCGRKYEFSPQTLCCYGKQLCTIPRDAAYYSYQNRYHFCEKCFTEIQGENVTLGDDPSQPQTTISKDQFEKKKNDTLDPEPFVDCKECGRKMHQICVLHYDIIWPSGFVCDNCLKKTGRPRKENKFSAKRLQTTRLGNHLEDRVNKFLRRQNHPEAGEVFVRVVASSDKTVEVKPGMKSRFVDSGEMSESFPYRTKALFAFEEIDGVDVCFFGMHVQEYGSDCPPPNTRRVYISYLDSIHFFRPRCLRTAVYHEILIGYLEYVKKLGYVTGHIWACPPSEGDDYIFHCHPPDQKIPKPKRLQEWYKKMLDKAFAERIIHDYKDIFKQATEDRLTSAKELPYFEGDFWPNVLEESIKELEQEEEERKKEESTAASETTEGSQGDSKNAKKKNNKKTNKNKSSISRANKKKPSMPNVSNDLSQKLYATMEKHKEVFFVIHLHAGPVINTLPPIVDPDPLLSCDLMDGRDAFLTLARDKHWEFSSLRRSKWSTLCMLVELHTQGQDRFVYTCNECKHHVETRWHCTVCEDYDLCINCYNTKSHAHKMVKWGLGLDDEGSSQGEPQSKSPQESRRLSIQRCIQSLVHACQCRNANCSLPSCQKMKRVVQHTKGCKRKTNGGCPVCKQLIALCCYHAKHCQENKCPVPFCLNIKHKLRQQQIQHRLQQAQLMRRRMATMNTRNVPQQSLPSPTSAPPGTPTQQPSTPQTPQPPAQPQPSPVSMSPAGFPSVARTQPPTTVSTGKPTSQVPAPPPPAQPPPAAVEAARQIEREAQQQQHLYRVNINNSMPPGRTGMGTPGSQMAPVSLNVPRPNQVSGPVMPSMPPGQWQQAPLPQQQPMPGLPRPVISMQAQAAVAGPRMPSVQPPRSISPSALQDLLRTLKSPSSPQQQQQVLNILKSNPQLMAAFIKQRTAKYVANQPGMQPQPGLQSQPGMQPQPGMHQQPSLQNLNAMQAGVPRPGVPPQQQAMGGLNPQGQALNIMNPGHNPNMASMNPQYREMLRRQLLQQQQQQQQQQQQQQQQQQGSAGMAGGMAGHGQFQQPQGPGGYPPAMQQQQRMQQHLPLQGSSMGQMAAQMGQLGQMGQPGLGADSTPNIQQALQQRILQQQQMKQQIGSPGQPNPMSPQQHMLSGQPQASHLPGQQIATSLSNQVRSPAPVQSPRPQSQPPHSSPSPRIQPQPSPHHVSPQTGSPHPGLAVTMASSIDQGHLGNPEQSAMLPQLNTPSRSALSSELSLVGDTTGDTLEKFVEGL
row,SMILES,IC50 [nM]
1,"CNC(=O)c1cc2cc(F)cnc2c(N2CCCc3cc(C4CCN(C(C)=O)CC4)c(C(F)F)cc32)n1 [Example 52, 8-[6-(1-acetylpiperidin-4-yl)-7-difluoro-methyl-3,4-dihydro-2H-quinolin-1-yl]-3-fluoro-[1,7] naphthyridine-6-carboxylic acid methylamide]",27
2,"CNC(=O)c1cc2cccnc2c(N2CCCc3cc(-c4cnn(C5CNC5)c4)c(C(F)F)cc32)n1 [Example 53, 8-[6-(1-azetidin-3-yl-1H-pyrazol-4-yl)-7-difluoromethyl-3,4-dihydro-2H-quinolin-1-yl]-[1,7]naphthyridine-6-carboxylic acid methylamide]",14
3,"CNC(=O)c1cc2cccnc2c(N2CCCc3cc(-c4cnn(C5CN(C)C5)c4)c(C(F)F)cc32)n1 [Example 54, 8-{7-difluoromethyl-6-[1-(1-methyl-azetidin-3-yl)-1H-pyrazol-4-yl]-3,4-dihydro-2H-quinolin-1-yl}-[1,7]naphthyridine-6-carboxylic acid methylamide]",11
4,"CNC(=O)c1cc2cccnc2c(N2CCCc3cc(-c4cnn(CC#N)c4)c(C(F)F)cc32)n1 [Example 55, 8-[6-(1-cyanomethyl-1H-pyrazol-4-yl)-7-difluoromethyl-3,4-dihydro-2H-quinolin-1-yl]-[1,7]naphthyridine-6-carboxylic acid methylamide]",15
5,"CNC(=O)Cn1cc(-c2cc3c(cc2C(F)F)N(c2nc(C(=O)NC)cc4ccccc24)CCC3)cn1 [Example 56, 1-[7-difluoromethyl-6-(1-methylcarbamoylmethyl-1H-pyrazol-4-yl)-3,4-dihydro-2H-quinolin-1-yl]-isoquinoline-3-carboxylic acid methylamide]",24
6,"CNC(=O)c1cc2ccccc2c(N2CCCc3cc(-c4cnn(C)c4)c(Cl)cc32)n1 [Example 57, 1-[7-chloro-6-(1-methyl-1H-pyrazol-4-yl)-3,4-dihydro-2H-quinolin-1-yl]-isoquinoline-3-carboxylic acid methylamide]",36
7,"CNC(=O)c1ccc2c(c1)CCCN2c1nc(C(=O)NC)cc2ccccc12 [Example 58, 1-(3-methylcarbamoylisoquinolin-1-yl)-1,2,3,4-tetrahydroquinoline-6-carboxylic acid methylamide]",100
8,"CNC(=O)c1cc2ccccc2c(N2CCCc3cc(CO)ccc32)n1 [Example 59, 1-(6-hydroxymethyl-3,4-dihydro-2H-quinolin-1-yl)-isoquinoline-3-carboxylic acid methylamide]",402
9,"CNC(=O)c1cc2ccccc2c(N2CCOc3cc(-c4cnn(C)c4)ccc32)n1 [Example 60, 1-[7-(1-methyl-1H-pyrazol-4-yl)-2,3-dihydro-benzo[1,4]oxazin-4-yl]-isoquinoline-3-carboxylic acid methylamide]",58
10,"CNC(=O)c1cc2c(c(N3CCCc4cc(-c5cnn(C)c5)c(C(F)F)cc43)n1)CCC2 [Example 61, 1-[7-difluoromethyl-6-(1-methyl-1H-pyrazol-4-yl)-3,4-dihydro-2H-quinolin-1-yl]-6,7-dihydro-5H-[2]pyrazine-3-carboxylic acid methylamide]",70
11,"CNC(=O)c1cc2c(c(N3CCCc4cc(-c5cnn(C)c5)c(C(F)F)cc43)n1)COC2 [Example 62, 4-(7-(difluoro-methyl)-6-(1-methyl-1H-pyrazol-4-yl)-3,4-dihydroquinolin-1(2H)-yl)-N-methyl-1,3-dihydrofuran [3,4-c]pyridine-6-carboxamide]",287
12,"CNC(=O)c1cc2ccoc2c(N2CCCc3cc(-c4cnn(C)c4)c(C(F)F)cc32)n1 [Example 63, 7-[7-difluoromethyl-6-(1-methyl-1H-pyrazol-4-yl)-3,4-dihydro-2H-quinolin-1-yl]-furan[2,3-c]pyridine-5-carboxylic acid methylamide]",136
13,"CNC(=O)c1cc2ncccc2c(N2CCCc3cc(-c4cnn(C)c4)c(C(F)F)cc32)n1 [Example 64, 5-[7-difluoromethyl-6-(1-methyl-1H-pyrazol-4-yl)-3,4-dihydro-2H-quinolin-1-yl]-[1,6]naphthyridine-7-carboxylic acid methylamide]",14
14,"CNC(=O)c1cc2cccnc2c(N2CCOc3cc(-c4cnn(C)c4)c(C(F)F)cc32)n1 [Example 65, 8-[6-difluoromethyl-7-(1-methyl-1H-pyrazol-4-yl)-2,3-dihydro-benzo[1,4]oxazin-4-yl]-[1,7]naphthyridine-6-carboxylic acid methylamide]",12
15,"CNC(=O)c1cc2cccnc2c(-c2ccc3c(c2)c(-c2cnn(C)c2)nn3C)n1 [Example 66, 8-[1-methyl-3-(1-methy 1-1H-pyrazol-4-yl)-1H-indazol-5-yl]-[1,7]naphthyridine-6-carboxylic acid methylamide]",49
